# Read-outs that look alike come from different tables or passages of the source. Ends that are not written are not given here.
# Experiments:
# Format in all cases: cell-based
# [1] = test system: Enterobacter aerogenes
# Excerpt: (§1) Bacterial isolates of Escherichia coli, Klebsiella pneumonia, Serratia marcescens, Pseudomonas aeruginosa, Enterobacter cloacae, and Enterobacter aerogenes, which were obtained from clinical cases of bovine mastitis, were used to assess the bactericidal activity of peptides in a broth microdilution assay. Isolates were obtained from repositories at Cornell University (gift of Dr. Y. H. Schukken; Quality Milk Production Services Program, Cornell University, Ithaca N.Y.) and the USDA Beltsville Agricultural Research Center. […] A. J. Bramley, Institute for Animal Health, Compton Laboratory, Newbury, England), which was originally isolated from a clinical case of mastitis ([…]. Dairy Res. 43: 205-211) was also used to assess the bactericidal activity of the peptides in biological fluids. Reference strains of E. coli (ATCC 25922) and Staphylococcus aureus (ATCC 29213) were obtained from a commercial source (American Type Culture Collection (ATCC), Manassas, Va.). To obtain fresh inoculums for evaluation, a sterile loop of each bacterial glycerol stock was streaked on a blood agar plate. After an overnight incubation at 35° C., a single uniform colony was picked and sub-passaged by streaking on a new blood agar plate and incubating the plate overnight at 35° C. To evaluate the antimicrobial activity of the peptides against various clinical mastitis bacterial isolates, the minimum inhibitory concentration (MIC) and the minimum bactericidal concentration (MBC) of these peptides against the isolates were determined using a standardized broth microdilution assay. In addition to the mastitis isolates, E. coli (ATCC 25922) and S. aureus (ATCC 29213) reference strains were evaluated. […] The assays were performed in accordance with Clinical and Laboratory Standards Institute (CLSI) [formerly National Committee for Clinical Laboratory Standards (NCCLS)] guidelines (National Committee for Clinical Laboratory Standards. 1999. Methods for Determining Bacterial Activity of Antimicrobial Agents: Approved Guideline. Wayne, Pa.; National Committee for Clinical Laboratory Standards. 2002. Performance Standards for Antimicrobial Disk and Dilution Susceptibility Tests for Bacteria Isolated from Animals: Approved Standard. 2nd Edition, Wayne, Pa.). […] The bacterial suspension was then diluted 100-fold in cation-adjusted Mueller-Hinton broth to reach a final inoculum concentration of 10^6 CFU/ml. […] A negative control column was included in the plate that included 100 μl of broth alone. The plates were incubated for 18 h at 35° C. with ambient air circulation and without shaking. The wells were subsequently inspected for cloudiness and pellet formation using a magnifying glass plate reader. The lowest concentration at which no pellet or cloudiness was apparent in a given well was identified as the MIC. […] The plates were incubated overnight at 35° C. and colonies subsequently enumerated. The MBC values were determined as the lowest concentration at which ≧99.9% of inoculated bacteria were killed. All assays were performed in triplicate and the MIC and MBC range reported.
# [2] = test system: E. coli strain P4; settings: for Mean log10 colony forming units: milk, 6 hours at 37° C.
# Procedure: (§2) Milk and blood samples were aseptically collected from 8 clinically healthy primiparous Holstein cows in mid-lactation with milk somatic cell counts of <150,000 cells/ml. All cows were determined to be free of intramammary pathogens by the absence of growth on blood agar plates spread with milk samples aseptically collected from each animal on 3 different days. For the preparation of whey, milk samples were centrifuged at 44,000×g at 4° C. for 30 min, and the fat layer removed with a spatula. The skim milk was transferred into another sterile tube, centrifuged for an additional 30 min, and the translucent supernatant collected. Milk and whey samples were pasteurized by heating at 63° C. for 30 min. For the preparation of serum, blood was collected from the coccygeal vein into vacutainer tubes containing gel and clot activator (BD Biosciences) for serum separation. The tubes were inverted ×5, the blood allowed to clot for 30 min, and the tubes centrifuged at 1500×g for 15 min. The clear serum supernatants were aseptically transferred into sterile tubes and heat-inactivated by incubating at 56° C. for 30 min. An aliquot of each sample was plated on blood agar plates and samples that were free of detectable bacterial growth were stored at −20° C.
# (§3) Overnight bacterial cultures of E. coli strain P4 grown in trypticase soy broth were diluted 1:1,000 in brain heart infusion broth and incubated at 37° C. for 2 hours while shaking at 225 rpm. The log-phase bacteria were diluted 1:10 in brain heart infusion broth to obtain a final concentration of […]. 0.01 ml of the bacterial inoculum was added to a 1.5 ml sterile microcentrifuge tube containing 0.04 ml of serum, milk, or whey. A 0.05 ml aliquot of either peptide or CBS alone was added to each tube. The samples were then shaken at 100 rpm for 6 hours at 37° C. The sample mixtures were subsequently serially diluted in sterile phosphate-buffered saline and plated on MacConkey agar plates (BD Biosciences). The plates were incubated overnight at 37° C. and the colonies enumerated.
# (§4) To determine whether bBPI142-169 and bBPI90-99,148-161 retained their bactericidal activity in physiological fluids, the peptides were incubated with E. coli strain P4 (1×10^5 CFU) in the presence of serum (Table 2) or milk (Table 3).
# (§5) However, bBPI90-99,148-161 was able to inhibit >99% of the growth of E. coli in milk. Because milk appeared to have an inhibitory effect on the bactericidal activity of bBPI90-99,148-161, the peptides were subsequently evaluated for their ability to retain activity in whey, which is the casein-depleted, protein-rich liquid fraction of milk (Table 4).
# [3] = test system: Enterobacter cloacae; assay: microbe, parasite or virus in culture
# Excerpt: as §1
# [4] = test system: Staphylococcus aureus; assay: microbe, parasite or virus in culture
# Excerpt: as §1
# [5] = test system: Pseudomonas aeruginosa; assay: microbe, parasite or virus in culture
# Excerpt: as §1
# [6] = test system: Serratia marcescens; assay: microbe, parasite or virus in culture
# Excerpt: as §1
# [7] = test system: E. coli strain P4; assay: bactericidal activity in serum; settings: for Mean log10 colony forming units: serum, 6 hours at 37° C.
# Procedure: as §2, §3, §4
# [8] = test system: E. coli strain P4; assay: bactericidal activity in whey; settings: for concentrations at which bactericidal activity was displayed: in the presence of whey; for Mean log10 colony forming units: whey, 6 hours at 37° C.
# Procedure: as §2, §3, §5
Sequence,MBC [1] [µg/mL],MIC [1] [µg/mL],Mean log10 colony forming units ([2]; peptide 20 μg/ml),Mean log10 colony forming units ([2]; peptide 200 μg/ml),Mean log10 colony forming units ([2]; peptide 2000 μg/ml),MBC [4] [µg/mL],MIC [4] [µg/mL],MBC [6] [µg/mL],MIC [6] [µg/mL],Mean log10 colony forming units ([7]; peptide 0.1 μg/ml),Mean log10 colony forming units ([7]; peptide 1 μg/ml),Mean log10 colony forming units ([7]; peptide 10 μg/ml),Mean log10 colony forming units ([7]; peptide 100 μg/ml),concentrations at which bactericidal activity was displayed [8],Mean log10 colony forming units ([8]; peptide 0.1 μg/ml),Mean log10 colony forming units ([8]; peptide 1 μg/ml),Mean log10 colony forming units ([8]; peptide 10 μg/ml),Mean log10 colony forming units ([8]; peptide 100 μg/ml),MBC [3] [µg/mL],MIC [3] [µg/mL],also measured
"KWKARKNFIKGSSLGWLIQLFRKR [bBPI90-99,148-161]",64,64,8.65 log10 colony forming units,7.89 log10 colony forming units,6.55 log10 colony forming units,64 to 128,64,>512,>512,8.25 log10 colony forming units,8.15 log10 colony forming units,0 log10 colony forming units,0 log10 colony forming units,≥ 10 µg/mL,8.17 log10 colony forming units,7.97 log10 colony forming units,0 log10 colony forming units,0 log10 colony forming units,,,"inhibition of the growth of E. coli ([2]; strain P4, 2 mg/ml): > 99%; MIC and MBC values [3]: ≤ 64 µg/mL; MIC and MBC values [5]: ≤ 128 µg/mL; concentrations at which bactericidal activity was demonstrated ([7]; in the presence of serum): ≥ 10 µg/mL"
NSQIRPLPDKGLDLSIRDASIKIRGKWKARKNFIK [bBPI65-99],>256,>256,8.69 log10 colony forming units,8.54 log10 colony forming units,8.06 log10 colony forming units,>256,>256,>512,>512,8.27 log10 colony forming units,8.28 log10 colony forming units,8.23 log10 colony forming units,8.07 log10 colony forming units,neither bBPI65-99 nor bBPI142-169 demonstrated bactericidal activity at any concentration tested,8.47 log10 colony forming units,8.26 log10 colony forming units,8.16 log10 colony forming units,7.36 log10 colony forming units,>256,>256,MBC [5]: >256 µg/mL; MIC [5]: >256 µg/mL
VRIHISGSSLGWLIQLFRKRIESLLQKS [bBPI142-169],>256,,8.67 log10 colony forming units,8.55 log10 colony forming units,7.99 log10 colony forming units,128 to 256,128 to 256,>512,>512,8.42 log10 colony forming units,8.38 log10 colony forming units,8.29 log10 colony forming units,7.96 log10 colony forming units,neither bBPI65-99 nor bBPI142-169 demonstrated bactericidal activity at any concentration tested,8.29 log10 colony forming units,8.44 log10 colony forming units,8.10 log10 colony forming units,7.45 log10 colony forming units,>256,>256,MBC [5]: >256 µg/mL; MIC [5]: >256 µg/mL
